# Read-outs that look alike come from different tables or passages of the source.
# Tests used:
# in vivo = settings: single PO Compound I-19 6.645 mg/kg; male CD-1 mice; mean
# Procedure: Dose solutions were prepared freshly on each day of studies prior to dosing.
# The animals were weighed immediately prior to dosing and the dose volume was calculated individually based the obtained body weight and the nominal dose volume. […] The nominal dose volume was 10 mL/kg in both studies.
# Cage side observation was performed before and after dosing as well as at each scheduled sample collection time. The observation included appearance, posture, behavior, morbidity and mortality. Abnormal findings, if any, are required to be recorded in the study record and communicated with study director, veterinarian, and Supernus if necessary.
# Approximately 40 μL blood was collected at each scheduled time point from saphenous veins. The actual sample collection time was within 1 min. of the nominal time for collections prior to or at 1 hour, and within 5% of the nominal values for collections post 1 hour.
# The blood samples were placed in pre-labeled micro-centrifuge tubes containing K2EDTA as anticoagulant and kept on ice before they were processed to plasma within 30 minutes of collection by centrifugation at 4° C., 3000 g for 5 minutes. The plasma samples were stored at −70±10° C. until LC-MS/MS analysis.
# Plasma concentrations below the LLOQ prior to Tmax were set to zero, and those after Tmax were excluded from PK calculation. The nominal dose and the nominal sample collection time were used for the calculation. The values of plasma concentrations and PK parameters are reported to three significant figures. The average values of each treatment group are presented as mean±SD.
# [1] = tested on: HEK293 uptake transporter overexpressing and control cells; experiment: Resazurin-based cytotoxicity assay
# Procedure: The cells were plated on 96-well plates. Prior to the experiment the medium was removed, and cells were rinsed with 2×100 μL of the respective buffer for uptake transporter transfected and control cell lines.
# [2] = MATE1 assay, 12.50 μM, incubation 30 + 3 min
# [3] = MATE1 assay, 50.00 μM, incubation 30 + 3 min
# [4] = MATE1 assay, 100.00 μM, incubation 30 + 3 min
# [5] = MATE2-K assay, 12.50 μM, incubation 30 + 1 min
# [6] = MATE2-K assay, 50.00 μM, incubation 30 + 1 min
# [7] = MATE2-K assay, 100.00 μM, incubation 30 + 1 min
# [8] = OAT1 assay, 12.50 μM, incubation 30 + 2 min
# [9] = OAT1 assay, 50.00 μM, incubation 30 + 2 min
# [10] = OAT1 assay, 100.00 μM, incubation 30 + 2 min
# [11] = OAT3 assay, 12.50 μM, incubation 30 + 1 min
# [12] = OAT3 assay, 50.00 μM, incubation 30 + 1 min
# [13] = OAT3 assay, 100.00 μM, incubation 30 + 1 min
# [14] = OATP1B1 assay, 12.50 μM, incubation 30 + 3 min
# [15] = OATP1B1 assay, 50.00 μM, incubation 30 + 3 min
# [16] = OATP1B1 assay, 100.00 μM, incubation 30 + 3 min
# [17] = OATP1B3 assay, 12.50 μM, incubation 30 + 2 min
# [18] = OATP1B3 assay, 50.00 μM, incubation 30 + 2 min
# [19] = OATP1B3 assay, 100.00 μM, incubation 30 + 2 min
# [20] = OCT1 assay, 12.50 μM, incubation 30 + 3 min
# [21] = OCT1 assay, 50.00 μM, incubation 30 + 3 min
# [22] = OCT1 assay, 100.00 μM, incubation 30 + 3 min
# [23] = OCT2 assay, 12.50 μM, incubation 30 + 1 min
# [24] = OCT2 assay, 50.00 μM, incubation 30 + 1 min
# [25] = OCT2 assay, 100.00 μM, incubation 30 + 1 min
structure (smiles),measurement,setting,value
Clc1ccc(C2(OCC3OCCO3)c3ccccc3C3=NCCN32)cc1 (stereo not shown) [Compound I-19],AUC0-last of Compound I-19,in vivo,2.04 ng·h/mL
same,Cmax of Compound I-19,in vivo,4.27 ng/mL
same,MRT0-last of Compound I-19,in vivo,21.9 min
same,Tlast of Compound I-19,in vivo,0.583 h
same,Tmax of Compound I-19,in vivo,20 min
same,Cell viability (cytotoxic effect),"[1]; HEK293-MATE1-LV, -MATE2-K-LV, -OAT1-LV, -OAT3-LV, -OATP1B1-LV, -OATP1B3-LV, -OCT1-LV, -OCT2-LV and control cells",did not reduce the cell viability
same,"Relative cell viability, control cells",[1]; [2],97.67 ± 3.73 % of control
same,"Relative cell viability, transfected cells",[1]; [2],97.90 ± 1.86 % of control
same,"Relative cell viability, control cells",[1]; [3],93.64 ± 2.83 % of control
same,"Relative cell viability, transfected cells",[1]; [3],95.88 ± 2.04 % of control
same,"Relative cell viability, control cells",[1]; [4],85.16 ± 2.74 % of control
same,"Relative cell viability, transfected cells",[1]; [4],97.35 ± 2.64 % of control
same,"Relative cell viability, control cells",[1]; [5],104.66 ± 2.14 % of control
same,"Relative cell viability, transfected cells",[1]; [5],101.07 ± 1.57 % of control
same,"Relative cell viability, control cells",[1]; [6],104.14 ± 1.46 % of control
same,"Relative cell viability, transfected cells",[1]; [6],106.73 ± 1.88 % of control
same,"Relative cell viability, control cells",[1]; [7],84.34 ± 2.47 % of control
same,"Relative cell viability, transfected cells",[1]; [7],101.71 ± 1.17 % of control
same,"Relative cell viability, control cells",[1]; [8],98.64 ± 5.98 % of control
same,"Relative cell viability, transfected cells",[1]; [8],97.97 ± 3.47 % of control
same,"Relative cell viability, control cells",[1]; [9],97.24 ± 5.90 % of control
same,"Relative cell viability, transfected cells",[1]; [9],95.01 ± 3.42 % of control
same,"Relative cell viability, control cells",[1]; [10],90.45 ± 6.49 % of control
same,"Relative cell viability, transfected cells",[1]; [10],88.69 ± 3.44 % of control
same,"Relative cell viability, control cells",[1]; [11],102.06 ± 3.84 % of control
same,"Relative cell viability, transfected cells",[1]; [11],99.42 ± 0.98 % of control
same,"Relative cell viability, control cells",[1]; [12],92.66 ± 3.32 % of control
same,"Relative cell viability, transfected cells",[1]; [12],97.87 ± 1.31 % of control
same,"Relative cell viability, control cells",[1]; [13],83.05 ± 3.00 % of control
same,"Relative cell viability, transfected cells",[1]; [13],97.06 ± 1.13 % of control
same,"Relative cell viability, control cells",[1]; [14],96.78 ± 4.68 % of control
same,"Relative cell viability, transfected cells",[1]; [14],99.91 ± 0.74 % of control
same,"Relative cell viability, control cells",[1]; [15],93.42 ± 4.34 % of control
same,"Relative cell viability, transfected cells",[1]; [15],98.71 ± 0.94 % of control
same,"Relative cell viability, control cells",[1]; [16],89.12 ± 4.63 % of control
same,"Relative cell viability, transfected cells",[1]; [16],94.19 ± 1.27 % of control
same,"Relative cell viability, control cells",[1]; [17],103.94 ± 0.47 % of control
same,"Relative cell viability, transfected cells",[1]; [17],102.23 ± 1.09 % of control
same,"Relative cell viability, control cells",[1]; [18],101.22 ± 1.01 % of control
same,"Relative cell viability, transfected cells",[1]; [18],101.42 ± 1.04 % of control
same,"Relative cell viability, control cells",[1]; [19],95.06 ± 1.40 % of control
same,"Relative cell viability, transfected cells",[1]; [19],97.75 ± 0.86 % of control
same,"Relative cell viability, control cells",[1]; [20],101.25 ± 5.53 % of control
same,"Relative cell viability, transfected cells",[1]; [20],92.84 ± 3.54 % of control
same,"Relative cell viability, control cells",[1]; [21],98.64 ± 5.26 % of control
same,"Relative cell viability, transfected cells",[1]; [21],92.82 ± 3.41 % of control
same,"Relative cell viability, control cells",[1]; [22],92.32 ± 6.47 % of control
same,"Relative cell viability, transfected cells",[1]; [22],86.46 ± 3.25 % of control
same,"Relative cell viability, control cells",[1]; [23],99.87 ± 1.09 % of control
same,"Relative cell viability, transfected cells",[1]; [23],99.66 ± 1.41 % of control
same,"Relative cell viability, control cells",[1]; [24],97.55 ± 0.85 % of control
same,"Relative cell viability, transfected cells",[1]; [24],99.58 ± 1.02 % of control
same,"Relative cell viability, control cells",[1]; [25],87.66 ± 0.85 % of control
same,"Relative cell viability, transfected cells",[1]; [25],96.29 ± 1.73 % of control
same,decrease of the relative cell viability compared to solvent (DMSO),[1]; all uptake transporter overexpressing and control cells,less than 20%
same,Microscopy results (solubility),"HBSS (pH 7.4) for OAT1, OAT3, OATP1B1, OATP1B3, OCT1, OCT2 uptake inhibition assay, 37° C., 6.25 μM nominal",Soluble
same,Microscopy results (solubility),"HBSS (pH 7.4) for OAT1, OAT3, OATP1B1, OATP1B3, OCT1, OCT2 uptake inhibition assay, 37° C., 50.00 μM nominal",Soluble
same,Microscopy results (solubility),"HBSS (pH 7.4) for OAT1, OAT3, OATP1B1, OATP1B3, OCT1, OCT2 uptake inhibition assay, 37° C., 100.00 μM nominal",Soluble
same,Kinetic solubility,HBSS (pH 7.4) uptake assay buffer,≥ 100 µM
same,Microscopy results (solubility),"KH (pH 8.0) for MATE1, MATE2-K uptake inhibition assay, 37° C., 6.25 μM nominal",Soluble
same,Microscopy results (solubility),"KH (pH 8.0) for MATE1, MATE2-K uptake inhibition assay, 37° C., 50.00 μM nominal",Soluble
same,Microscopy results (solubility),"KH (pH 8.0) for MATE1, MATE2-K uptake inhibition assay, 37° C., 100.00 μM nominal",Soluble
same,Kinetic solubility,KH (pH 8.0) uptake assay buffer,≥ 100 µM
same,Microscopy results (solubility),"Transport buffer (pH 7.4) for BSEP VT inhibition assay, 37° C., 6.25 μM nominal",Soluble
same,Microscopy results (solubility),"Transport buffer (pH 7.4) for BSEP VT inhibition assay, 37° C., 50.00 μM nominal",Soluble
same,Microscopy results (solubility),"Transport buffer (pH 7.4) for BSEP VT inhibition assay, 37° C., 100.00 μM nominal",Soluble
same,Microscopy results (solubility),"Transport buffer with sucrose (pH 7.4) for BCRP and MDR1 VT inhibition assay, 32° C., 6.25 μM nominal",Soluble
same,Microscopy results (solubility),"Transport buffer with sucrose (pH 7.4) for BCRP and MDR1 VT inhibition assay, 32° C., 50.00 μM nominal",Soluble
same,Microscopy results (solubility),"Transport buffer with sucrose (pH 7.4) for BCRP and MDR1 VT inhibition assay, 32° C., 100.00 μM nominal",Soluble
same,Microscopy results (solubility),pH 7.4,Soluble
same,Microscopy results (solubility),pH 8,Soluble
same,Kinetic solubility,transport buffer for BSEP (pH 7.4),≥ 100 µM
same,Kinetic solubility,"transport buffer with sucrose for BCRP and MDR1 (pH 7.4, 32° C.)",≥ 100 µM
